Measurements taken from article PMC7956560, “New 3-Aryl-2-(2-thienyl)acrylonitriles with High Activity Against Hepatoma Cells” (International Journal of Molecular Sciences, 2021).

Assays:
HepG2 cells [1] = assay: LDH release assay (unspecific cytotoxicity); type: cell-based, human; settings: HepG2, 0.5 and 10 µM, 12 or 24 h
Description: Unspecific cytotoxicity induced by treatment with 0.5 µM and 10 µM of 1a, 1b, 1c and sorafenib (LC Laboratories, Woburn, MA, USA) was determined by measuring the release of lactate dehydrogenase (LDH) from HepG2 cells into the supernatant after 12 and 24 h (Cytotoxicity Detection KitPLUS LDH, Roche Diagnostics GmbH, Mannheim, Germany). The supernatant of treated samples was collected, and adherent non-treated cells were lysed with 2% Triton X-100 for 10 min to determine the maximum LDH release. All samples were mixed with catalyst and dye solution for 30 min, resulting in the formation of formazan dye proportional to LDH enzyme activity. The absorbance was measured at 490/630 nm using an ELISA reader (Dynex Technologies, Denkendorf, Germany) and cytotoxicity was determined by subtracting the percentage of LDH release under control conditions of those from treated samples. Experiments were performed in duplicate and data are given as mean percentage changes ± SD as compared to controls of n = 3 experiments.

[2] = test system: caspase-3 activity of HepG2 cells; assay: Apoptosis-specific caspase-3 activity; type: cell-based, human; settings: 24 h; for caspase-3 activity (in words): HepG2, 1 and 10 µM
Description: Changes in caspase-3 activity were measured by the cleavage of the fluorogenic substrate AC-DEVD-AMC (EMD Millipore, Billerica, MA, USA), as described previously. After 24 h of incubation with 1a, 1b, 1c, 1e and sorafenib (1 and 10 µM) the cells were harvested and lysed with lysis buffer. Subsequently, the lysates were incubated for 1 h at 37 °C with a substrate solution containing 20 μg/mL AC-DEVD-AMC, 20 mM HEPES, 10% glycerol and 2 mM DTT at pH 7.5. Substrate cleavage was measured fluorometrically using a Varioskan Flash Fluorometer (Thermo Fisher Scientific, Waltham, MA, USA; filter sets: ex 360/40 nm, em 460/10 nm). n = 3 independent measurements were performed in triplicate, and data are given as the mean percentage increase ± SD above control, which was set 100%.

[3] = test system: human HepG2 hepatoblastoma cells; assay: Growth inhibition, crystal violet staining, HepG2; type: cell-based; settings: 48 h incubation, mean ± SD, read-out: Anti-proliferative activity IC50, HepG2
Description: (§1) The well-differentiated p53 wild-type human hepatoblastoma cell line HepG2 (ATCC# 8065) and the highly differentiated p53 mutated human hepatocellular carcinoma cell line Huh-7 (JCRB#0403) were grown in RPMI 1640 medium supplemented with 10% fetal bovine serum and 100 U/mL penicillin and […] streptomycin. Murine AML-12 hepatocytes were obtained from ATCC (CRL-2254) and grown in DMEM/F-12 Glutamax medium supplemented with 10% fetal bovine serum, 10 µg/mL insulin, 5.5 µg/mL transferrin, 5 ng/mL selenium (Gibco ITS-G 100X) and 40 ng/mL dexamethasone (Sigma-Aldrich). All cell lines were incubated in a 37 °C, 5% CO2, 95% humidified atmosphere.
(§2) Treatment-induced changes in cell number were evaluated by crystal violet staining, as previously described. Briefly, 1.500 cells per well were seeded in 96-well plates for 24 h at 37 °C, 5% CO2. For the experiments with HepG2 and Huh-7 cell lines, cells were incubated with rising concentrations (0–20 µM) of the new compounds (1a–1o) for 48 h. AML12-cells were treated with compounds 1a, 1b, 1c, 1e, 1i and 1j for 48 h and at concentrations ranging from 0.5–64 µM. Thereafter, the cells were fixed with 1% glutaraldehyde and stained with 0.1% crystal violet (Sigma-Aldrich). The unbound dye was removed by rinsing with water. Bound crystal violet was solubilized with 0.2% Triton X-100 (Sigma-Aldrich). Light extinction of crystal violet, which increases linearly with cell number, was analyzed at 570 nm using an ELISA-Reader (Dynex Technologies, Denkendorf, Germany). All experiments were carried out in duplicate or triplicate.

[4] = test system: non-malignant murine AML-12 hepatocytes; assay: Growth inhibition, crystal violet staining, AML-12; type: cell-based; settings: for IC50 against AML-12 hepatocytes relative to hepatoma cells: AML-12 vs hepatoma cells (HepG2, Huh-7), 48 h; for IC50: Mus musculus, AML12, 48 h incubation, mean ± SD, read-out: Anti-proliferative activity IC50, AML-12
Description: as §1, §2

HepG2 cells [5] = assay: Colony-formation assay; type: cell-based, human; settings: 1, 5, 10 µM, 14 days
Description: HepG2 cells were seeded in 6-well plates at a density of 300 cells/well and allowed to attach overnight. […] Then, the plates were washed twice with PBS, fixed with 4% formaldehyde for 1 h, and stained with 0.5% crystal violet for 3 min. Excessive crystal violet was washed out and the colonies were counted under the microscope. A colony was defined as a cell aggregate with 50 or more cells. Representative images were taken with a kappa digital camera system (Kappa Optronics GmbH, Germany). A total of n = 3 experiments were performed, and significance was tested by one-way ANOVA assays.

VEGFR-2 (KDR) = molecular target: T1, VEGFR-2 (KDR) (Homo sapiens, UniProt P35968); assay: Enzymatic kinase assay (Eurofins KinaseProfiler); type: biochemical; settings: 10 µM compound, cell-free
T1 construct: purchased Eurofins KinaseProfiler service (Eurofins, France)
T1 sequence (P35968 20-1356): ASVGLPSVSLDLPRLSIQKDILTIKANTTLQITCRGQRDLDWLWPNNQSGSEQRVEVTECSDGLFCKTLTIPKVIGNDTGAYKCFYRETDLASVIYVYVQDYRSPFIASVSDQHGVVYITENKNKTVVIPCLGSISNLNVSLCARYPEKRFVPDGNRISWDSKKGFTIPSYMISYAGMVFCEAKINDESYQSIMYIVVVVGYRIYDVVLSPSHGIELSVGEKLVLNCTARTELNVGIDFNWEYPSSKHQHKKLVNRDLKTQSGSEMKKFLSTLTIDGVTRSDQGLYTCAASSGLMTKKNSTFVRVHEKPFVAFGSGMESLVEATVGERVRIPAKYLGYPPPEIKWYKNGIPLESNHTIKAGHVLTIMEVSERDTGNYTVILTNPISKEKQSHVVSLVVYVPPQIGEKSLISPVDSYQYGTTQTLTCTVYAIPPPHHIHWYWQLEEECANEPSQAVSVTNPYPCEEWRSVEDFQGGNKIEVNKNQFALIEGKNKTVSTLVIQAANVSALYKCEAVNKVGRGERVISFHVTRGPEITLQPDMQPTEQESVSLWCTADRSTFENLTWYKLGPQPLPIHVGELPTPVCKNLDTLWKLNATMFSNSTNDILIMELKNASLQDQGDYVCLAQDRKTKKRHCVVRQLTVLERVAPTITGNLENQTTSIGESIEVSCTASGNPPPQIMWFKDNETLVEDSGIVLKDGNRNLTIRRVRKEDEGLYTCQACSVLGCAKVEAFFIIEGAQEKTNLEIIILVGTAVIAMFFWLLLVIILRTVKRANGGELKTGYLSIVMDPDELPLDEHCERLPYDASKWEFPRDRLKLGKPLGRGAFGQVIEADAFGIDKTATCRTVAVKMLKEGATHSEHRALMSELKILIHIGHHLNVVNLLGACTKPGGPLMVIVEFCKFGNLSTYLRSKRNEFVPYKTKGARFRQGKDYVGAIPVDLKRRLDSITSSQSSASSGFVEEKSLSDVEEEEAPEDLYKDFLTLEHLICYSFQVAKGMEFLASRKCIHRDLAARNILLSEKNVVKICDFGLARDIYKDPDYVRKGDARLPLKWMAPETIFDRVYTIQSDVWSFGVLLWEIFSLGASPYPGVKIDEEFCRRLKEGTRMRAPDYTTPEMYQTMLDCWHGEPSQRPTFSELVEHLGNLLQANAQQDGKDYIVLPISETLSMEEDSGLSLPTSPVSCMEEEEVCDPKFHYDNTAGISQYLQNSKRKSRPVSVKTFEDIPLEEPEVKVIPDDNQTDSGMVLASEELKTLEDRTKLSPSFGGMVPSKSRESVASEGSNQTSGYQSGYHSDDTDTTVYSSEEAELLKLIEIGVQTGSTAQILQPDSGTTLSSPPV
Description: (§3) The kinase inhibiting potency of compound 1a, 1b and 1c (10 µM) was screened in a cell-free kinase assay, which consisted of a custom panel of 43 human protein kinases for 1c (listed in Figure 5A), as well as a subpanel of six kinases for 1a and 1b (Figure 5B). The initial panel was chosen to screen the lead compound 1c based on the union of two strategies. A total of 29 kinases were selected based on the correlated results of three in silico target prediction methods including structure- as well as ligand-based techniques and 20 kinases because of their relevance for HCC (note that six kinases were part of both strategies).
(§4) The assay was performed by Eurofins KinaseProfilerTM service (Eurofins, France) and the determination of enzymatic activity was assessed as previously described. Additionally, an IC50 determination of compound 1c against the VEGFR-2 was performed with a concentration range of 0.003 to 30 µM.

CLK1 = molecular target: T2, CLK1 (Homo sapiens, UniProt P49759); assay: Enzymatic kinase assay (Eurofins KinaseProfiler); type: biochemical; settings: 10 µM compound, cell-free
T2 construct: purchased Eurofins KinaseProfiler service (Eurofins, France)
T2 sequence (P49759 whole entry): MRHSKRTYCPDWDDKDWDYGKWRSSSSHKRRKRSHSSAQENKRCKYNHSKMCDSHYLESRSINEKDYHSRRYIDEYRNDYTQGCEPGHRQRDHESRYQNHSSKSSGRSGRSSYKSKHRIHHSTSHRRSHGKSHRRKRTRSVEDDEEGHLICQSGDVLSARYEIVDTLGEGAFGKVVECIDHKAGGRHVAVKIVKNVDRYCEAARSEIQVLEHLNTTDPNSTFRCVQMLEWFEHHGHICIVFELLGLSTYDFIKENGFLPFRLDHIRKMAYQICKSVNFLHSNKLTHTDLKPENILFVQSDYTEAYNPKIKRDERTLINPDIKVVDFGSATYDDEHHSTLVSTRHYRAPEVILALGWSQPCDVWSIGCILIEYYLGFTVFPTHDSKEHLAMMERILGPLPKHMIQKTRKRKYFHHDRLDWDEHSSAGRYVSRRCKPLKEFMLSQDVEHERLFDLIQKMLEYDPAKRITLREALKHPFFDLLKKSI
Description: as §3, §4

human Huh-7 HCC cells = assay: Growth inhibition, crystal violet staining, Huh-7; type: cell-based; settings: 48 h incubation, mean ± SD, read-out: Anti-proliferative activity IC50, Huh-7
Description: as §1, §2

[6] = test system: HepG2-tumors grown on membranes of fertilized chicken eggs; assay: Chorioallantoic membrane (CAM) assay; type: in vivo; settings: for tumor reduction vs PBS-treated controls (in words): topical treatment 72 h, 1b 0–10 µM, 1c 0–2.5 µM, sorafenib 10 µM
Description: The chorioallantoic membrane (CAM) assay was performed as described previously. Fertilized chicken eggs (Gallus gallus) were obtained from commercial sources (Valo GmbH, Germany) and incubated in a humid environment at 38 °C. On day 3 of the egg development, a window was cut in the eggshell to access the developing vascular network of the CAM. At day 10 of chicken embryo development, a sterile silicon ring (10 mm diameter) was placed on the CAM and tumor plugs of 3 × 10^6 HepG2 cells in 20 µL Matrigel (BD Biosciences) with reduced growth factors were placed inside the silicon ring. After 24 h at 38 °C in an incubator, the tumor plaques attached and connected to the (tumor-)feeding CAM microvasculature. Then, the tumor plaques were topically treated with either PBS (negative control) or PBS containing rising concentrations of 1b (0–10 µM), 1c (0–2.5 µM) or sorafenib (10 μM) for 3 days. Tumor growth and viability of the embryo were controlled daily by stereo microscopy. After 72 h of treatment, the tumors were recovered for weighing and pictures were taken using a stereomicroscope equipped with a Kappa digital camera system (Kappa Optronics GmbH, Germany). For data analysis, the tumor weight of 1c-treated and untreated control tumors was determined and the mean weight of treated vs. untreated tumors of 11 eggs for each condition was calculated. Statistical significance evaluated by one-way ANOVA tests.

Pim-1 = settings: cited from earlier work

| Compound | IC50 [3] | IC50 (human Huh-7 HCC cells) | IC50 [4] | further results |
| --- | --- | --- | --- | --- |
| CN(C)c1ccc(C=C(C#N)c2cccs2)cc1 [Compound 1b] | 0.72 ± 0.09 µM | 0.67 ± 0.13 µM | 2.72 ± 0.78 µM | LDH release / unspecific cytotoxicity (in words) (HepG2 cells [1]): do not exert considerable unspecific cytotoxicity; tumor reduction vs PBS-treated controls (in words) [6]: pronounced tumor reductions; tolerability, mortality and development of chicken embryos ([6]; treated vs untreated eggs): well tolerated; caspase-3 activity compared with the other compounds (in words) ([2]; HepG2, 10 µM): comparably stronger increase in caspase-3 activity than the other compounds; caspase-3 activity (in words) [2]: dose-dependently induced caspase-3 activity; IC50 against AML-12 hepatocytes relative to hepatoma cells [4]: up to 10 fold; effect on HepG2 colony formation (in words) (HepG2 cells [5]): significantly inhibited HepG2 colony formation; inhibition at 10 µM (VEGFR-2 (KDR)): 86% |
| COc1cc(/C=C(\C#N)c2cccs2)ccc1O [Compound 1d] | > 20 µM | > 20 µM |  |  |
| COc1cc(/C=C(\C#N)c2cccs2)ccc1-c1ccccc1Cl [Compound 1f] | > 20 µM | > 20 µM |  |  |
| COCCOc1ccc(/C=C(\C#N)c2cccs2)cc1OCCOC [Compound 1h, 2-{1-Cyano-2-[3,4-bis(2-methoxyethoxy)phenyl]-(E)-ethenyl}-thiophene] | > 20 µM | > 20 µM |  |  |
| COc1ccc(/C=C(\C#N)c2cccs2)cc1Br [Compound 1l, 2-[1-Cyano-2-(3-bromo-4-methoxyphenyl)-(E)-ethenyl]-thiophene] | 13.9 ± 1.16 µM |  |  |  |
| N#C/C(=C\c1cccc(O)c1)c1cccs1 [Compound 1m, 2-[1-Cyano-2-(3-hydroxyphenyl)-(E)-ethenyl]-thiophene] | > 20 µM | > 20 µM |  |  |
| COc1ccc(/C=C(\C#N)c2cccs2)cc1OCCCN1CCOCC1 [Compound 1n, 2-{1-Cyano-2-[4-methoxy-3-(3-morpholinopropoxy)phenyl]-(E)-ethenyl}-thiophene] | > 20 µM | > 20 µM |  |  |
| Cn1ccc2cc(/C=C(\C#N)c3cccs3)ccc21 [Compound 1o, 2-{1-Cyano-2-[N-methylindol-5-yl]-(E)-ethenyl}-thiophene] | > 20 µM | > 20 µM |  |  |
| CNC(=O)c1cc(Oc2ccc(NC(=O)Nc3ccc(Cl)c(C(F)(F)F)c3)cc2)ccn1 [Sorafenib, sorafenib, reference compound] | 2.73 ± 0.76 µM | 2.5 ± 0.14 µM |  | LDH release / unspecific cytotoxicity (in words) (HepG2 cells [1]): do not exert considerable unspecific cytotoxicity; tumor reduction vs PBS-treated controls (in words) [6]: pronounced tumor reductions; Pim-1 inhibitory activity (in words) (Pim-1): no Pim-1 inhibitory activity; caspase-3 activity (in words) [2]: dose-dependently induced caspase-3 activity |

Now from value to compound, other results behind:

| IC50 [3] | IC50 (human Huh-7 HCC cells) | Compound | IC50 [4] | further results |
| --- | --- | --- | --- | --- |
| 1.46 ± 0.21 µM | 1.2 ± 0.42 µM | COc1ccc(C=C(C#N)c2cccs2)cc1 [Compound 1a] | 6.79 ± 0.32 µM | LDH release / unspecific cytotoxicity (in words) (HepG2 cells [1]): do not exert considerable unspecific cytotoxicity; caspase-3 activity (in words) [2]: dose-dependently induced caspase-3 activity; IC50 against AML-12 hepatocytes relative to hepatoma cells [4]: up to 10 fold; effect on HepG2 colony formation (in words) (HepG2 cells [5]): significantly inhibited HepG2 colony formation; inhibition of VEGFR-2 (KDR) (VEGFR-2 (KDR)): lacks any activity; inhibition at 10 µM (CLK1): 68% |
| 1.3 ± 0.17 µM | 1.85 ± 0.21 µM | COc1ccc(C=C(C#N)c2cccs2)cc1C [Compound 1e, 2-[1-Cyano-2-(3-methyl-4-methoxyphenyl)-(E)-ethenyl)]-thiophene] | 14.8 ± 2.39 µM | caspase-3 activity (in words) [2]: dose-dependently induced caspase-3 activity; IC50 against AML-12 hepatocytes relative to hepatoma cells [4]: up to 10 fold; effect on HepG2 colony formation (in words) (HepG2 cells [5]): significantly inhibited HepG2 colony formation |
| > 20 µM | > 20 µM | COCCOc1cc(/C=C(\C#N)c2cccs2)ccc1OC [Compound 1g, 2-[1-Cyano-2-[4-Methoxy-3-(2-methoxyethoxy)phenyl]-(E)-ethenyl}-thiophene] |  |  |
| 9.3 ± 0.82 µM | 11.8 ± 0.56 µM | CN1CCN(c2ccc(/C=C(\C#N)c3cccs3)cc2)CC1 [Compound 1i, 2-[1-Cyano-2-(4-N-methylpiperazin-1-ylphenyl)-(E)-ethenyl]-thiophene] | 20.5 ± 1.25 µM |  |
| 4.9 ± 1.54 µM | 5.7 ± 1.2 µM | COc1ccc(/C=C(\C#N)c2cccs2)cc1F [Compound 1j, 2-[1-Cyano-2-(3-fluoro-4-methoxyphenyl)-(E)-ethenyl]-thiophene] | 9.42 ± 0.91 µM |  |
| > 20 µM | > 20 µM | COCCOc1ccc(/C=C(\C#N)c2cccs2)cc1F [Compound 1k, 2-{1-Cyano-2-[3-fluoro-4-(2-methoxyethoxy)phenyl]-(E)-ethenyl}-thiophene] |  |  |
| 6.26 ± 1.18 µM |  | COc1ccc(C=C(C#N)c2cccnc2)cc1O [Compound 2, reference compound] |  |  |
